From US20260265329A1, “POLYPEPTIDE AND DERIVATIVE THEREOF, COMPOSITION, AND USE THEREOF” (HANGZHOU SCIWIND BIOSCIENCES CO., LTD., priority 2023, published 2026)
Starred links: 1 amine or outer side, 2 acyl side, 3 side chain; linkers in the order of their positions; H or OH if unused. Non-standard residues stand in square brackets, D forms with d. Residues, ends and D or L forms follow the SMILES beside them. *: point of attachment. C20 diacid = O=C(O)CCCCCCCCCCCCCCCCCCC(=O)*; γGlu = O=C(O)[C@H](CCC(=O)[*:2])N[*:1]; βAsp = O=C(O)[C@H](CC(=O)[*:2])N[*:1]; Hyp = O=C(O)[C@@H]1C[C@@H](O)CN1

T1: human amylin receptors (Homo sapiens, UniProt O60896+P30988)
T1 construct: host or cells: CHO-K1/Ga15/AMY3 cells, further stably transfected with a CRE-luciferase plasmid
T1 sequence (P30988 25-474): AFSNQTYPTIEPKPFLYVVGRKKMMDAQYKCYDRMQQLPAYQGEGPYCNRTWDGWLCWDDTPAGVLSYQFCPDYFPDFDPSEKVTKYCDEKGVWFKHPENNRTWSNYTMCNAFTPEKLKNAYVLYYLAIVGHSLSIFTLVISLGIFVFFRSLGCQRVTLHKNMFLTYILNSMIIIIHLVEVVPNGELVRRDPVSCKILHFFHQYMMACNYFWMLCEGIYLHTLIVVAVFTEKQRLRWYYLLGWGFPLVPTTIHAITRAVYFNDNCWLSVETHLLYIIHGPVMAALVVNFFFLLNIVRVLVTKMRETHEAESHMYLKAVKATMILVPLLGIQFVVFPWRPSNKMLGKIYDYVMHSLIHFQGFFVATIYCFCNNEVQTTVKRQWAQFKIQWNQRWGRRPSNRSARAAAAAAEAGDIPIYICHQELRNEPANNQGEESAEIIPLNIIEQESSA
T1 sequence (O60896 24-148 partner): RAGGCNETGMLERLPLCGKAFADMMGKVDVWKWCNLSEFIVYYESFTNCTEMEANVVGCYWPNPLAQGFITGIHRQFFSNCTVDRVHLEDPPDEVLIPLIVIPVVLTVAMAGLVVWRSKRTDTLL

T2: human amylin receptor on CHO-K1/Ga15/AMY3 cells (amylin receptor/CRE-luc cell line) (human) (UniProt P30988)
T2 sequence (looked up) 1: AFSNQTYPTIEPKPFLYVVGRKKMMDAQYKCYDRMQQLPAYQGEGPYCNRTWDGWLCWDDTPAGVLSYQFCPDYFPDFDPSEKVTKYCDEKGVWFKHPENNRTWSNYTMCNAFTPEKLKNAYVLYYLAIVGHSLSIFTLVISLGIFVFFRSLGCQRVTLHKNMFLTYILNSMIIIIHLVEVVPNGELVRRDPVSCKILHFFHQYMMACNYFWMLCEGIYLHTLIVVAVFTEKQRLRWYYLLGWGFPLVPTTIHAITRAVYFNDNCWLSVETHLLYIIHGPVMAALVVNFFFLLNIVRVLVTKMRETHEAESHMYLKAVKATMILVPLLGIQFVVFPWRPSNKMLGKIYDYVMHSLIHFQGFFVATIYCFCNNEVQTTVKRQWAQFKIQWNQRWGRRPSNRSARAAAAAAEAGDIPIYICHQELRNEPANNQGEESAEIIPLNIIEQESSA
T2 sequence (looked up) 2: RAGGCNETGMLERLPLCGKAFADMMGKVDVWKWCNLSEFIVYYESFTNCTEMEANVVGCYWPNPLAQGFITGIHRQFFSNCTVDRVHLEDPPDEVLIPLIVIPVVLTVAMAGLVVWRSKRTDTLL


Tests used:
[1] = molecular target: T1, human amylin receptors; assay: Luciferase assay in stably transfected amylin receptor/CRE-luc CHO cell line; assay type: cell-based; details: for Relative activity: EC50 ratio of Cagrilintide to the compound, Cagrilintide 100%; for EC50: amylin receptor/CRE-luc CHO cells, 24 hours incubation, luminescence
[2] = Heat accelerated stability assay, 40° C., detection on 7 d and 28 d; assay type: physicochemical; details: for Purity from the reversed phase chromatography-214 nm, 0 d / Purity from the reversed phase chromatography-214 nm, 7 d / Purity from the reversed phase chromatography-214 nm, 28 d: 1 mg/mL, pH about 7.4, 40° C.; for Change (7 d − 0 d): purity on 7 d − purity on 0 d; for Change (7 d − 0 d) / Change (28 d − 0 d): 40° C., pH about 7.4; for Change (28 d − 0 d): purity on 28 d − purity on 0 d
Method: The derivatives (1 mg/mL) were mixed with sodium dihydrogen phosphate (1.42 mg/mL) and dissolved in ultrapure water. After adjusting pH to about 7.4 with hydrochloric acid/sodium hydroxide, the solution was filtered into a sterilized vial in a clean bench using a 0.22 μm sterile filter. The vial was then capped and placed into the stability test chamber at 40° C. Detections were made on Days 7 (7d) and 28 (28d), and during the assay, changes in the characteristics and properties of the polypeptides were observed and recorded. The sample was then centrifuged for 3 min at 10000 rpm at 4° C., and the supernatant was transferred to a liquid phase sample vial for detecting the concentration and purity of the polypeptides using liquid phase chromatography described as below.
Conditions of the reversed phase chromatography Flow rate: 1.0 mL/min; Autosampler temperature: 15° C.; Column temperature: 25° C.; Detection wavelength: 214 nm; Mobile phase A: 100% H2O+0.05% TFA; Mobile phase B: 100% ACN; and Gradient of elution listed in Table 4: […]

[3] = molecular target: T2, human amylin receptor on CHO-K1/Ga15/AMY3 cells (amylin receptor/CRE-luc cell line) (human); assay: cell-based or functional assay

Molecule	Relative activity [1]	EC50 [1]	Purity from the reversed phase chromatography-214 nm, 0 d [2]	Purity from the reversed phase chromatography-214 nm, 7 d [2]	Purity from the reversed phase chromatography-214 nm, 28 d [2]	Change (7 d − 0 d) [2]	Change (28 d − 0 d) [2]	EC50 (luciferase assay, amylin receptor/CRE-luc CHO cells) [3]	Relative activity (the EC50 ratio of Cagrilintide to the compound) [3]
CC[C@H](C)[C@H](NC(=O)[C@H](CC(=O)O)NC(=O)[C@H](CCCNC(=N)N)NC(=O)[C@H](CC(=O)O)NC(=O)[C@H](CCCNC(=N)N)NC(=O)[C@H](CC(=O)O)NC(=O)[C@@H](NC(=O)[C@H](Cc1ccccc1)NC(=O)[C@H](Cc1c[nH]cn1)NC(=O)[C@H](CCCNC(=N)N)NC(=O)[C@H](CC(C)C)NC(=O)[C@H](Cc1ccccc1)NC(=O)[C@H](CC(=O)O)NC(=O)[C@H](C)NC(=O)[C@H](CC(C)C)NC(=O)[C@H](CCCNC(=N)N)NC(=O)[C@H](CCC(N)=O)NC(=O)[C@@H](NC(=O)[C@@H](NC(=O)[C@H](C)NC(=O)[C@@H](NC(=O)[C@H](CO)NC(=O)[C@H](CC(C)C)NC(=O)[C@H](CCC(N)=O)NC(=O)[C@H](CO)NC(=O)[C@H](C)NC(=O)CC[C@H](NC(=O)CCCCCCCCCCCCCCCCCCC(=O)O)C(=O)O)[C@@H](C)O)C(C)C)[C@@H](C)O)[C@@H](C)O)C(=O)N[C@@H](CC(C)C)C(=O)N1CCC[C@H]1C(=O)N1CCC[C@H]1C(=O)N[C@H](C(=O)N[C@@H](CC(N)=O)C(=O)N[C@H](C(=O)NCC(=O)N[C@@H](CO)C(=O)N[C@@H](CC(N)=O)C(=O)N[C@H](C(=O)N1CCC[C@H]1C(N)=O)[C@@H](C)O)C(C)C)[C@@H](C)O [M8] ({C20 diacid-γGlu}-ASQLSTAVTQRLADFLRHFTDRDRDILPPTNVGSNTP-NH2)	53%	0.049 nM	86.93	86.57	87.31	−0.36	0.38	–	–
CC[C@H](C)[C@H](NC(=O)[C@@H]1CCCN1C(=O)[C@H](CCCCN)NC(=O)[C@H](CC(C)C)NC(=O)[C@H](CC(N)=O)NC(=O)[C@H](CC(N)=O)NC(=O)[C@H](CO)NC(=O)[C@H](CO)NC(=O)[C@H](Cc1c[nH]cn1)NC(=O)[C@H](CCCNC(=N)N)NC(=O)[C@H](CC(C)C)NC(=O)[C@H](Cc1ccccc1)NC(=O)[C@H](CC(=O)O)NC(=O)[C@H](C)NC(=O)[C@H](CC(C)C)NC(=O)[C@H](CCCNC(=N)N)NC(=O)[C@H](CCC(N)=O)NC(=O)[C@H](CC(C)C)NC(=O)[C@@H](NC(=O)[C@H](C)NC(=O)[C@@H](NC(=O)[C@H](CO)NC(=O)[C@H](CC(C)C)NC(=O)[C@H](CCC(N)=O)NC(=O)[C@H](CO)NC(=O)[C@H](C)NC(=O)CC[C@H](NC(=O)CCCCCCCCCCCCCCCCCCC(=O)O)C(=O)O)[C@@H](C)O)C(C)C)C(=O)N[C@@H](CC(C)C)C(=O)N1CCC[C@H]1C(=O)N1CCC[C@H]1C(=O)N[C@H](C(=O)N[C@@H](CC(N)=O)C(=O)N[C@H](C(=O)NCC(=O)N[C@@H](CO)C(=O)N[C@@H](CC(N)=O)C(=O)N[C@H](C(=O)N1C[C@H](O)C[C@H]1C(N)=O)[C@@H](C)O)C(C)C)[C@@H](C)O [M9] ({C20 diacid-γGlu}-ASQLSTAVLQRLADFLRHSSNNLKPILPPTNVGSNT[Hyp]-NH2)	100%	0.026 nM	88.15	89.62	90.99	1.47	2.84	–	–
CC[C@H](C)[C@H](NC(=O)[C@H](CC(=O)O)NC(=O)[C@H](CCCNC(=N)N)NC(=O)[C@H](CC(=O)O)NC(=O)[C@H](CCCNC(=N)N)NC(=O)[C@H](CC(=O)O)NC(=O)[C@@H](NC(=O)[C@H](Cc1ccccc1)NC(=O)[C@H](Cc1c[nH]cn1)NC(=O)[C@H](CCCNC(=N)N)NC(=O)[C@H](CC(C)C)NC(=O)[C@H](Cc1ccccc1)NC(=O)[C@H](CC(=O)O)NC(=O)[C@H](C)NC(=O)[C@H](CC(C)C)NC(=O)[C@H](CCCNC(=N)N)NC(=O)CNC(=O)[C@H](CC(C)C)NC(=O)[C@@H](NC(=O)[C@H](C)NC(=O)[C@@H](NC(=O)[C@H](CO)NC(=O)[C@H](CC(C)C)NC(=O)[C@H](CCC(N)=O)NC(=O)[C@H](CO)NC(=O)[C@H](C)NC(=O)CC[C@H](NC(=O)CCCCCCCCCCCCCCCCCCC(=O)O)C(=O)O)[C@@H](C)O)C(C)C)[C@@H](C)O)C(=O)N[C@@H](CC(C)C)C(=O)N1CCC[C@H]1C(=O)N1CCC[C@H]1C(=O)N[C@H](C(=O)N[C@@H](CC(N)=O)C(=O)N[C@H](C(=O)NCC(=O)N[C@@H](CO)C(=O)N[C@@H](CC(N)=O)C(=O)N[C@H](C(=O)N1CCC[C@H]1C(N)=O)[C@@H](C)O)C(C)C)[C@@H](C)O [M4] ({C20 diacid-γGlu}-ASQLSTAVLGRLADFLRHFTDRDRDILPPTNVGSNTP-NH2)	32%	0.081 nM	95	94.22	92.25	−0.78	−2.75	–	–
{C20 diacid}-EASQLSTAATQRLADFLRHSSNNLKPILPPTNVGSNT[Hyp]-NH2 (SMILES CC[C@H](C)[C@H](NC(=O)[C@@H]1CCCN1C(=O)[C@H](CCCCN)NC(=O)[C@H](CC(C)C)NC(=O)[C@H](CC(N)=O)NC(=O)[C@H](CC(N)=O)NC(=O)[C@H](CO)NC(=O)[C@H](CO)NC(=O)[C@H](Cc1c[nH]cn1)NC(=O)[C@H](CCCNC(=N)N)NC(=O)[C@H](CC(C)C)NC(=O)[C@H](Cc1ccccc1)NC(=O)[C@H](CC(=O)O)NC(=O)[C@H](C)NC(=O)[C@H](CC(C)C)NC(=O)[C@H](CCCNC(=N)N)NC(=O)[C@H](CCC(N)=O)NC(=O)[C@@H](NC(=O)[C@H](C)NC(=O)[C@H](C)NC(=O)[C@@H](NC(=O)[C@H](CO)NC(=O)[C@H](CC(C)C)NC(=O)[C@H](CCC(N)=O)NC(=O)[C@H](CO)NC(=O)[C@H](C)NC(=O)[C@H](CCC(=O)O)NC(=O)CCCCCCCCCCCCCCCCCCC(=O)O)[C@@H](C)O)[C@@H](C)O)C(=O)N[C@@H](CC(C)C)C(=O)N1CCC[C@H]1C(=O)N1CCC[C@H]1C(=O)N[C@H](C(=O)N[C@@H](CC(N)=O)C(=O)N[C@H](C(=O)NCC(=O)N[C@@H](CO)C(=O)N[C@@H](CC(N)=O)C(=O)N[C@H](C(=O)N1C[C@H](O)C[C@H]1C(N)=O)[C@@H](C)O)C(C)C)[C@@H](C)O) [M26]	–	–	–	–	–	–	–	0.049 nM	103%
{C20 diacid-βAsp}-ASQLSTAATQRLADFLRHSSNNLKPILPPTNVGSNT[Hyp]-NH2 (SMILES CC[C@H](C)[C@H](NC(=O)[C@@H]1CCCN1C(=O)[C@H](CCCCN)NC(=O)[C@H](CC(C)C)NC(=O)[C@H](CC(N)=O)NC(=O)[C@H](CC(N)=O)NC(=O)[C@H](CO)NC(=O)[C@H](CO)NC(=O)[C@H](Cc1c[nH]cn1)NC(=O)[C@H](CCCNC(=N)N)NC(=O)[C@H](CC(C)C)NC(=O)[C@H](Cc1ccccc1)NC(=O)[C@H](CC(=O)O)NC(=O)[C@H](C)NC(=O)[C@H](CC(C)C)NC(=O)[C@H](CCCNC(=N)N)NC(=O)[C@H](CCC(N)=O)NC(=O)[C@@H](NC(=O)[C@H](C)NC(=O)[C@H](C)NC(=O)[C@@H](NC(=O)[C@H](CO)NC(=O)[C@H](CC(C)C)NC(=O)[C@H](CCC(N)=O)NC(=O)[C@H](CO)NC(=O)[C@H](C)NC(=O)C[C@H](NC(=O)CCCCCCCCCCCCCCCCCCC(=O)O)C(=O)O)[C@@H](C)O)[C@@H](C)O)C(=O)N[C@@H](CC(C)C)C(=O)N1CCC[C@H]1C(=O)N1CCC[C@H]1C(=O)N[C@H](C(=O)N[C@@H](CC(N)=O)C(=O)N[C@H](C(=O)NCC(=O)N[C@@H](CO)C(=O)N[C@@H](CC(N)=O)C(=O)N[C@H](C(=O)N1C[C@H](O)C[C@H]1C(N)=O)[C@@H](C)O)C(C)C)[C@@H](C)O) [M27]	–	–	–	–	–	–	–	0.064 nM	78%
